Data as given in ChEMBL document CHEMBL1135497, “Identification of potent and novel alpha4beta1 antagonists using in silico screening” (J Med Chem, 2002).

Molecular target: Integrin alpha-4/beta-1 (Homo sapiens, UniProt P05556+P13612)
Assay: Inhibition of Very late antigen 4 (VLA-4) and VCAM-Ig fusion protein interaction
Type: protein-complex assay

Chain of Integrin alpha-4/beta-1 (P05556 whole entry, the tested form may be a part): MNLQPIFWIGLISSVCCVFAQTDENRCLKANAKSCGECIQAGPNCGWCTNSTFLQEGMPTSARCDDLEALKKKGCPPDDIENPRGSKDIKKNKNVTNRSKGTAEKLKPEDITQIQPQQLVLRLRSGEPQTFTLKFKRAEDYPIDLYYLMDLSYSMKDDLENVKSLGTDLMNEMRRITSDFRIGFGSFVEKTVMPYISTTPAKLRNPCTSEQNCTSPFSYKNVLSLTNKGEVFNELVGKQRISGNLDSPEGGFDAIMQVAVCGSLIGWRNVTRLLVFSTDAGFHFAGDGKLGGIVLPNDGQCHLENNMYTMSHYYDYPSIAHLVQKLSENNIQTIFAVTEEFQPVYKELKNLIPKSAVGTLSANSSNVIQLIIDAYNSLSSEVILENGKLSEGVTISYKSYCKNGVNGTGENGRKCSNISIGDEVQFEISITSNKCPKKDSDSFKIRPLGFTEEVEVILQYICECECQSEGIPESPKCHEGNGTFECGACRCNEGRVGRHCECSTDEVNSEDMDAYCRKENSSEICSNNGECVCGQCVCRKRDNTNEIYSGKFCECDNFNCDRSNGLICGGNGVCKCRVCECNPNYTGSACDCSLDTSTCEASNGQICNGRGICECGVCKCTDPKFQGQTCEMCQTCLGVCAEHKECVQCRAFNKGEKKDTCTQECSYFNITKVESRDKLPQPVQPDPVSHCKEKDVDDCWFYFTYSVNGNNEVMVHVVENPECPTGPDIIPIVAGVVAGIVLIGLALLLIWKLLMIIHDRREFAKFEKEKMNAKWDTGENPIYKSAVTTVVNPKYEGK
Chain of Integrin alpha-4/beta-1 (P13612 whole entry, the tested form may be a part): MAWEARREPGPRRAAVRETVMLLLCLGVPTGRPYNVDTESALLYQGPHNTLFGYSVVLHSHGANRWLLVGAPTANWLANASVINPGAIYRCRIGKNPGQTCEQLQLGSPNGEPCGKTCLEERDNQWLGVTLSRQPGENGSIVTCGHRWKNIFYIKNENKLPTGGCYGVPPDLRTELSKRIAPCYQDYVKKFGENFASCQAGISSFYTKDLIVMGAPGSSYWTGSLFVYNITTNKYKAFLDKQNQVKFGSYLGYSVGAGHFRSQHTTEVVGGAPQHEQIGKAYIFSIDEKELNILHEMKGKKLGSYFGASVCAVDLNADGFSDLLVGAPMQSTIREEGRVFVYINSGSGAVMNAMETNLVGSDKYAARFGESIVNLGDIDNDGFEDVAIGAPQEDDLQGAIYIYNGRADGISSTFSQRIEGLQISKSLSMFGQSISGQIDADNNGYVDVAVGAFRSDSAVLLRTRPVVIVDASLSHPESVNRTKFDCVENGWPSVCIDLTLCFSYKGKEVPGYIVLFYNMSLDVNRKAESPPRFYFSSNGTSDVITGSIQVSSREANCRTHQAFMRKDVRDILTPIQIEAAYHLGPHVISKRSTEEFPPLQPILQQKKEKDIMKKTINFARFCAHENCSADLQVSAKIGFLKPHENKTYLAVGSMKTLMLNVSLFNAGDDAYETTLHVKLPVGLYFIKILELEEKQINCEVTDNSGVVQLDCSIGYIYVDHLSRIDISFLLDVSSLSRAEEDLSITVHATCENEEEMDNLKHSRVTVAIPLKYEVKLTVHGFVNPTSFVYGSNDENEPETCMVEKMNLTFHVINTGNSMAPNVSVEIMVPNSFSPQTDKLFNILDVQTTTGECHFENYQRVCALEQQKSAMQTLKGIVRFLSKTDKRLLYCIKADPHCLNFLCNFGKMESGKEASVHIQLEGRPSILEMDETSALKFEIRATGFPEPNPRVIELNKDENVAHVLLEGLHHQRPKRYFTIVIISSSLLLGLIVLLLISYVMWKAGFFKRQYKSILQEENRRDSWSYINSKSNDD

IC50 [nM]	Structure (SMILES)
15000	Cc1ccccc1NC(=O)Nc1ccc(CC(=O)Nc2nc(CC(=O)O)cs2)cc1
3000	Cc1ccccc1NC(=O)Nc1ccc(CC(=O)Nc2cn(CCC(=O)O)c(C)n2)cc1
800	Cc1ccccc1NC(=O)Nc1ccc(CC(=O)Nc2ccc3cnn(C(=O)NCC(=O)O)c3c2)cc1
11400	Cc1ccccc1NC(=O)Nc1ccc(CC(=O)Nc2cccc(CCC(=O)O)c2)cc1

Continued, compound first:

Structure (SMILES)	IC50 [nM]
Cc1ccccc1NC(=O)Nc1ccc(CC(=O)Nc2ccc(C(C)CC(=O)O)cc2)cc1 (configuration not stated)	1.3
Cc1ccccc1NC(=O)Nc1ccc(CC(=O)Nc2cccc(C(O)CC(=O)O)c2)cc1 (configuration not stated)	2000
Cc1ccccc1NC(=O)Nc1ccc(CC(=O)Nc2cccc(C(C)CC(=O)O)c2)cc1 (configuration not stated)	2500
Cc1ccccc1NC(=O)Nc1ccc(CC(=O)Nc2cccc(NC(=O)NCC(=O)O)c2)cc1	67
Cc1ccccc1NC(=O)Nc1ccc(CC(=O)Nc2cccc(C(=O)NCC(=O)O)c2)cc1	1200
CC(=O)NC(Cc1ccc(NC(=O)Cc2ccc(NC(=O)Nc3ccccc3C)cc2)cc1)C(=O)O (configuration not stated)	58
Cc1ccccc1NC(=O)Nc1ccc(CC(=O)Nc2nnc(SCC(=O)O)s2)cc1	2300
C=C(S/C(=N\C(=O)Cc1ccc(NC(=O)Nc2ccccc2C)cc1)NCCC(=O)O)c1ccccc1	20000
